# BindingDB's records for doi:10.1016/0960-894X(96)00012-1 (1996)
# Target: T1, Acetylcholinesterase (Bos taurus, UniProt P23795)
# T1 sequence (P23795 whole entry): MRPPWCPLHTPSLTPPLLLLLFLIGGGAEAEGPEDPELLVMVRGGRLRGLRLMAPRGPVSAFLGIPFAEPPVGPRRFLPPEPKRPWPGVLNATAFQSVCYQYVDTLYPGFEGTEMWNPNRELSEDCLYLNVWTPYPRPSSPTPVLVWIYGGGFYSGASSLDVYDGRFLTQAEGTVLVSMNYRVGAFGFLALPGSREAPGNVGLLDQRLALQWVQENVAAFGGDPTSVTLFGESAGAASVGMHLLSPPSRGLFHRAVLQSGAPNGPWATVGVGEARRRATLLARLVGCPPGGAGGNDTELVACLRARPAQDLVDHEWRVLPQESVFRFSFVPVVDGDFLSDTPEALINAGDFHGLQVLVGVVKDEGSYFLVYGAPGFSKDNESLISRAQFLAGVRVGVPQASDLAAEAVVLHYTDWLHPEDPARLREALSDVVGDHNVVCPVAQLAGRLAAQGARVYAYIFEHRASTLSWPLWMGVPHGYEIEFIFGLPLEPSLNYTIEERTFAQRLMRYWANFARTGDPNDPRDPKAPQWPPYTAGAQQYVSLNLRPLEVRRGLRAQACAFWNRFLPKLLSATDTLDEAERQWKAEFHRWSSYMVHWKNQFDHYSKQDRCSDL
# Test: Kinetic constant for inhibition of fetal bovine serum acetylcholinesterase
# Settings: for kon: read-out: kon (M-1-s-1)
SMILES,kon (M-1-s-1),kon [M⁻¹ s⁻¹]
C/C=C1\[C@H]2C=C(C)C[C@@]1(N)c1ccc(=O)[nH]c1C2 [Huperzine A],0.05667 M-1-s-1,0.057
"C/C=C1\C2C=C(C)C[C@]1(N)c1ccc(=O)[nH]c1C2(C)C [(R)-1-Amino-13-ethylidene-8,8,11-trimethyl-6-aza-tricyclo[7.3.1.0*2,7*]trideca-2(7),3,10-trien-5-one]",–,0.013
